A word on the pIC50: it is the negative decadic logarithm of the IC50, by convention in mol/L.

pIC50: −log10 of the molar value. Like-named read-outs stand apart in the source and are kept apart here.

This is an account of results in US9115145B2, “Tocotrienol derivatives and associated methods” (FIRST TECH INTERNATIONAL LIMITED, priority 2011, dated 2015).

Test [1] has as its system +SA mammary epithelial cells. Nature of the test: MTT assay of +SA cells (antiproliferative activity). As to conditions: 24 hours treatment, read-out: IC50 antiproliferative activity against +SA mammary epithelial cells. It is filed as cell-based, mouse. The gist of the method: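 Mouse +SA mammary adenocarcinoma cells in serum-free DMEM/F12 were grown 3 days, then treated 24 h with BSA-conjugated compounds (0–40 μM; DMSO <0.1%). Viable cell number came from MTT (570 nm) against a cell standard curve. IC50 was derived by linear regression.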
(In general: Tetrazolium dyes change colour on reduction, which living cells bring about.)

In test [2] the test system is 60 human tumor cell lines. Nature of the test: NCI in vitro screening against 60 human cell lines, single concentration. As to conditions: 10 μM dose; negative values indicate cytotoxicity. The class given is cell-based. As to the method: Compounds selected from Compounds 3-44 were provided to the National Cancer Institute for in vitro screening against 60-human cell lines for their ability to inhibit the growth of tumor cells in a full panel representing nine different organs (blood, lung, colon, CNS, skin, ovary, kidney, prostate, and breast). The compounds were tested at a single concentration of 10 μM, and the percentages of growth inhibitions over the sixty tested cell lines were determined. Compounds showing the highest activity were chosen for secondary assays using five different compound concentrations.
The human tumor cell lines of the cancer screening panel were grown in RPMI 1640 medium containing 5% fetal bovine serum and 2 mM L-glutamine. For a typical screening experiment, cells are inoculated into 96 well microtiter plates in 100 μL at plating densities ranging from 5000 to 40,000 cells/well depending on the doubling time of individual cell lines. After cell inoculation, the microtiter plates are incubated at 37° C., 5% CO2, 95% air and 100% relative humidity for 24 hours prior to addition of experimental drugs. After 24 hours, two plates of each cell line are fixed in situ with Trichloroacetic acid (“TCA”), to represent a measurement of the cell population for each cell line at the time of drug addition. Experimental drugs are solubilized in dimethyl sulfoxide at 400-fold the desired final maximum test concentration and stored frozen prior to use. At the time of drug addition, an aliquot of frozen concentrate is thawed and diluted to twice the desired final maximum test concentration with complete medium containing 50 ng/mL gentamicin. An aliquot of 100 μL of this drug dilution is added to the appropriate microtiter wells already containing 100 μL of medium, resulting in the required final drug concentrations. Following drug addition, the plates are incubated for an additional 48 h at 37° C., 5% CO2, 95% air, and 100% relative humidity. For adherent cells, the assay is terminated by the addition of cold TCA. Cells are fixed in situ by the gentle addition of 50 μL of cold 50% (w/v) TCA (final concentration, 10% TCA) and incubated for 60 min at 4° C. The supernatant is discarded, and the plates are washed five times with tap water and air dried. Sulforhodamine B (SRB) solution (100 μL) at 0.4% (w/v) in 1% acetic acid is added to each well, and plates are incubated for 10 min at room temperature. After staining, unbound dye is removed by washing five times with 1% acetic acid and the plates are air dried. Bound stain is subsequently solubilized with 10 mM trizma base, and the absorbance is read on an automated plate reader at a wavelength of 515 nm. For suspension cells, the methodology is the same except that the assay is terminated by fixing settled cells at the bottom of the wells by gently adding 50 μL of 80% TCA (final concentration, 16% TCA). FIGS. 37-74 indicate the growth inhibition effects of selected Compounds against a variety of cell lines based on the above described testing configuration. FIGS. 37-74 present the Growth percent for a given compound against the cell lines and both values and a bar chart of the difference between the mean growth percent and the growth percent which is an indication of the selectivity of the compound for that particular cell line.

The test system of test [3] is MDA-MB-231 human breast cancer cell line. Put plainly: MTT assay of MDA-MB-231 cells. It is filed as cell-based. Conditions: media containing 5% fetal bovine serum. The protocol:
MDA-MB-231 and MCF7 cells were plated at a density of 8×10^3 cells/well and 10^4 cells/well in 96-well culture plates, respectively. The compounds were fed in serum free media containing 5% and 1% fetal bovine serum for MDA-MB-231 and MCF7 cells, respectively.

As to `CC(C)=CCC/C(C)=C/CC/C(C)=C/CC[C@]1(C)CCc2cc(O)c(C)c(C)c2O1` [Compound 1, γ-tocotrienol, reference compound], the figures for the pIC50 in test [1] and in test [3] were 5.40 and 5.03, respectively. Besides, in test [2], the “mean percent growth across all 60 cell lines (mean 60)” value was “inactive”.
For `COc1ccc(CCNCc2c(O)c(C)c(C)c3c2CC[C@@](C)(CC/C=C(\C)CC/C=C(\C)CCC=C(C)C)O3)cc1OC` [Compound 30, (R)-5-((3,4-dimethoxyphenethylamino)methyl)-2,7,8-trimethyl-2-((3E,7E)-4,8,12-trimethyltrideca-3,7,11-trienyl)chroman-6-ol], the pIC50 in test [1] (Mus musculus, +SA cell) is 5.50. Besides, the “mean percent growth across all 60 cell lines (mean 60)” value in test [2] was “comparable to the activity of Compound 1”.
